Experimental findings from ChEMBL document CHEMBL1134554, “Design, synthesis, and structure-activity relationships of macrocyclic hydroxamic acids that inhibit tumor necrosis factor alpha release in vitro and in vivo” (J Med Chem, 2001) are described below.

This assay addresses Disintegrin and metalloproteinase domain-containing protein 17 (Homo sapiens, UniProt P78536).

Structures are written as SMILES.

Sequence of Disintegrin and metalloproteinase domain-containing protein 17 (P78536 whole entry, the tested form may be a part): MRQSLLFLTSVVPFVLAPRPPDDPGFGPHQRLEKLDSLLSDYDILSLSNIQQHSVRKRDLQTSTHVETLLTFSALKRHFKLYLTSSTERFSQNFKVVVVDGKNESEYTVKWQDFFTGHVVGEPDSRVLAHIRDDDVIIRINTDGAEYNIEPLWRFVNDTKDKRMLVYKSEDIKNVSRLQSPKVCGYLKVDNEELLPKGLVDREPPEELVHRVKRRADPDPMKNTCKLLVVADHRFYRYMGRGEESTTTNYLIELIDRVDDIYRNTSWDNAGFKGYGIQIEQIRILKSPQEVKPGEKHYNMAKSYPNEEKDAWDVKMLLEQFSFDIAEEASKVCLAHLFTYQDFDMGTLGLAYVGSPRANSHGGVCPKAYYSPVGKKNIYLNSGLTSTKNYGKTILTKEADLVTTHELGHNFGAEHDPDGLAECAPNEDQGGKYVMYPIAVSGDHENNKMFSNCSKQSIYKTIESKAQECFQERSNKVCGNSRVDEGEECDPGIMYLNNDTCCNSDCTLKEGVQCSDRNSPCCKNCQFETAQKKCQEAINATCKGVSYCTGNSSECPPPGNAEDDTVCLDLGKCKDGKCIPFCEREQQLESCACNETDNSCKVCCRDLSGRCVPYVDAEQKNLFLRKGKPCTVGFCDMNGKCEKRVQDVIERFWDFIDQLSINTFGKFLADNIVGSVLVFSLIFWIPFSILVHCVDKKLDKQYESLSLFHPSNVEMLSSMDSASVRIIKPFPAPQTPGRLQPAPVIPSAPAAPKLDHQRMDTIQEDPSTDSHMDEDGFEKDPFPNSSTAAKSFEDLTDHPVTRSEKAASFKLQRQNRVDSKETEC
Description: Inhibition of LPS-stimulated TNF-alpha release in human whole blood

Usually IC50 stands for the concentration at which inhibition is half-maximal. A higher IC50 goes with a need for much substance. Consider `CC(C)C[C@H]1C(=O)N[C@H](C(=O)N[C@H]2c3ccccc3C[C@H]2O)CCCCNC(=O)OCCC[C@@H]1C(=O)NO`, for which the half-inhibitory concentration (IC50) is 400 nM.

`CC(C)C[C@H]1C(=O)N[C@H](C(=O)N[C@@H]2c3ccccc3C[C@@H]2O)CCCCNC(=O)OCCC[C@@H]1C(=O)NO` displayed a half-maximal inhibitory concentration (IC50) of 110 nM.

Compound `CNC(=O)[C@@H]1CCCCN(C(=O)OC(C)(C)C)CCC[C@H](C(=O)NO)[C@@H](CC(C)C)C(=O)N1` showed an IC50 of 1400 nM. Under `CNC(=O)[C@@H]1CCCCN(S(=O)(=O)c2ccccc2)CCC[C@H](C(=O)NO)[C@@H](CC(C)C)C(=O)N1` stands 1300 nM; under `CCOC(=O)N1CCN(C(=O)CNC(=O)[C@@H]2CCCCNC(=O)OCCC[C@H](C(=O)NO)[C@@H](CC(C)C)C(=O)N2)CC1`, 130 nM.

With `CC(C)C[C@H]1C(=O)N[C@H](C(=O)NCc2ccncc2)CCCCNC(=O)OCCC[C@@H]1C(=O)NO`, 490 nM corresponded to half-maximal inhibition (IC50). Under `CC(C)C[C@H]1C(=O)N[C@H](C(=O)NCC(=O)N2CCN(c3ccccc3)CC2)CCCCNC(=O)OCCC[C@@H]1C(=O)NO` stands 70 nM; under `CNC(=O)[C@H](NC(=O)[C@@H]1Cc2ccc(cc2)OCCC[C@H](C(=O)NO)[C@@H](CC(C)C)C(=O)N1)C(C)C`, 1510 nM; under `CC(C)C[C@H]1C(=O)N[C@H](C(=O)NC[C@H]2CCCO2)CCCCNC(=O)OCCC[C@@H]1C(=O)NO`, 980 nM. In the case of `CC(C)C[C@H]1C(=O)N[C@H](C(=O)NCCc2ccccn2)CCCCNC(=O)OCCC[C@@H]1C(=O)NO` it was 390 nM. Regarding `CCCCCC[C@H]1C(=O)N[C@H](C(=O)NCc2ccccc2)Cc2ccc(cc2)OCCC[C@@H]1C(=O)NO`, inhibition was half-maximal at 2200 nM (IC50). Take `CNC(=O)[C@@H](C)NC(=O)[C@@H]1Cc2ccc(cc2)OCCC[C@H](C(=O)NO)[C@@H](CC(C)C)C(=O)N1`: the IC50 is 700 nM. In the case of `CC(C)C[C@H]1C(=O)N[C@H](C(=O)NCC(F)(F)F)Cc2ccc(cc2)OCCC[C@@H]1C(=O)NO` it was 680 nM; in that of `Cc1csc(NC(=O)[C@@H]2CCCCN(C)C(=O)OCCC[C@H](C(=O)NO)[C@@H](CC(C)C)C(=O)N2)n1`, 300 nM.

The compound `CC(C)C[C@H]1C(=O)N[C@H](C(=O)NCC(=O)N2CCN(C)CC2)CCCCNC(=O)OCCC[C@@H]1C(=O)NO` showed a half-maximal inhibitory concentration (IC50) of 160 nM.

Compound `CC(C)C[C@H]1C(=O)N[C@H](C(=O)NCC(=O)N2CCC(N3CCCCC3)CC2)CCCCNC(=O)OCCC[C@@H]1C(=O)NO` registered an IC50 of 180 nM. Under `CNC(=O)CNC(=O)[C@@H]1CCCCN(C)C(=O)OCCC[C@H](C(=O)NO)[C@@H](CC(C)C)C(=O)N1` stands 420 nM. In the case of `CC(C)C[C@H]1C(=O)N[C@H](C(=O)NCC(=O)N2CC(C)OC(C)C2)CCCCNC(=O)OCCC[C@@H]1C(=O)NO` (some centres not stated) it was 150 nM. Under `CNC(=O)[C@@H](CCCCNC(=O)OC(C)(C)C)NC(=O)[C@@H]1CCCCNC(=O)OCCC[C@H](C(=O)NO)[C@@H](CC(C)C)C(=O)N1` stands 210 nM; under `CC(C)C[C@H]1C(=O)N[C@H](C(=O)NCC(=O)N2CC(C)CC(C)C2)Cc2ccc(cc2)OCCC[C@@H]1C(=O)NO` (some centres not stated), 270 nM. Compound `CC(C)C[C@H]1C(=O)N[C@H](C(=O)NCC(=O)N2CCC(O)CC2)CCCCN(C)C(=O)OCCC[C@@H]1C(=O)NO` displayed an IC50 of 300 nM. `CCCCCC[C@H]1C(=O)N[C@H](C(=O)OC)Cc2ccc(cc2)OCCC[C@@H]1C(=O)NO` had an IC50 of over 50000 nM. In the case of `CC(C)C[C@H]1C(=O)N[C@H](C(=O)NCc2ccccn2)CCCCNC(=O)OCCC[C@@H]1C(=O)NO` it was 700 nM; in that of `CC(C)C[C@H]1C(=O)N[C@H](C(=O)Nc2ccncc2)CCCCN(C)C(=O)OCCC[C@@H]1C(=O)NO`, 500 nM. Under `CC(C)C[C@H]1C(=O)N[C@H](C(=O)NCC(=O)N(C)C)CCCCN(C)C(=O)OCCC[C@@H]1C(=O)NO` stands 300 nM; under `CC(C)C[C@H]1C(=O)N[C@H](C(=O)NCC(=O)Nc2cccc3c2Cc2ccccc2-3)Cc2ccc(cc2)OCCC[C@@H]1C(=O)NO`, 930 nM; under `CC(C)C[C@H]1C(=O)N[C@H](C(=O)NCCc2ccccc2O)CCCCNC(=O)OCCC[C@@H]1C(=O)NO`, 85 nM. In the case of `CC(C)C[C@H]1C(=O)N[C@H](C(=O)Nc2nc(CC(=O)N3CCOCC3)cs2)CCCCNC(=O)OCCC[C@@H]1C(=O)NO` it was 120 nM; in that of `CC(C)C[C@H]1C(=O)N[C@H](C(=O)NCC(=O)Nc2ccccn2)CCCCN(C)C(=O)OCCC[C@@H]1C(=O)NO`, 200 nM. `CC(C)C[C@H]1C(=O)N[C@H](C(=O)N[C@H](CO)C(=O)N2CCOCC2)CCCCNC(=O)OCCC[C@@H]1C(=O)NO` registered an IC50 of 100 nM.

For the compound `CNC(=O)[C@@H](CCCCN)NC(=O)[C@@H]1CCCCNC(=O)OCCC[C@H](C(=O)NO)[C@@H](CC(C)C)C(=O)N1`, 690 nM corresponded to half-maximal inhibition (IC50). As to `CC(C)C[C@H]1C(=O)N[C@H](C(=O)NCC(=O)N2CCN(C)CC2)CCCCN(C)C(=O)OCCC[C@@H]1C(=O)NO`, the IC50 was 120 nM.

Compound `CNC(=O)[C@@H]1Cc2ccc(cc2)OCCC[C@H](C(=O)NO)[C@@H](CC(C)C)C(=O)N1` came in with an IC50 of 1200 nM. In the case of `CNC(=O)[C@@H]1CCCCNC(=O)CO[C@H](C(=O)NO)[C@@H](CC(C)C)C(=O)N1` it was 6500 nM; in that of `CC(C)C[C@H]1C(=O)N[C@H](C(=O)NCCC(=O)N2CCOCC2)CCCCNC(=O)OCCC[C@@H]1C(=O)NO`, 170 nM; in that of `CC(C)C[C@H]1C(=O)N[C@H](C(=O)N[C@H](C)C(=O)N2CCOCC2)CCCCNC(=O)OCCC[C@@H]1C(=O)NO`, 150 nM.

`CCCCCC[C@H]1C(=O)N[C@H](C(=O)NCC(=O)NC)Cc2ccc(cc2)OCCC[C@@H]1C(=O)NO`: half-maximal inhibition (IC50) required 550 nM. Under `CNC(=O)[C@@H]1CCCCNCCC[C@H](C(=O)NO)[C@@H](CC(C)C)C(=O)N1` stands 2700 nM. Under `COC(=O)c1csc(NC(=O)[C@@H]2CCCCNC(=O)OCCC[C@H](C(=O)NO)[C@@H](CC(C)C)C(=O)N2)n1` stands 83 nM; under `COc1ccc2[nH]cc(CCNC(=O)[C@@H]3CCCCNC(=O)OCCC[C@H](C(=O)NO)[C@@H](CC(C)C)C(=O)N3)c2c1`, 490 nM; under `CC(C)C[C@H]1C(=O)N[C@H](C(=O)NCC(=O)N2CCCCC2)Cc2ccc(cc2)OCCC[C@@H]1C(=O)NO`, 140 nM. In the case of `Cc1csc(NC(=O)CNC(=O)[C@@H]2CCCCN(C)C(=O)OCCC[C@H](C(=O)NO)[C@@H](CC(C)C)C(=O)N2)n1` it was 300 nM; in that of `CC(C)C[C@H]1C(=O)N[C@H](C(=O)NCC(=O)N2CCCC(C)(C)C2)Cc2ccc(cc2)OCCC[C@@H]1C(=O)NO`, 460 nM; in that of `CNC(=O)[C@@H](CC(C)C)NC(=O)[C@@H]1CCCCNC(=O)OCCC[C@H](C(=O)NO)[C@@H](CC(C)C)C(=O)N1`, 100 nM.

Turning to `CNC(=O)[C@H](C)NC(=O)[C@@H]1Cc2ccc(cc2)OCCC[C@H](C(=O)NO)[C@@H](CC(C)C)C(=O)N1`, 4490 nM corresponded to half-maximal inhibition (IC50). Take `CC(C)C[C@H]1C(=O)N[C@H](C(=O)NCCc2c[nH]c3ccc(F)cc23)CCCCNC(=O)OCCC[C@@H]1C(=O)NO`: inhibition was half-maximal at 130 nM (IC50).

Take `COc1ccc2c(CCNC(=O)[C@@H]3CCCCNC(=O)OCCC[C@H](C(=O)NO)[C@@H](CC(C)C)C(=O)N3)c[nH]c2c1`: the IC50 stood at 94 nM.

In the case of `CC(C)C[C@H]1C(=O)N[C@H](C(=O)NCC(=O)N2CCC(C(=O)O)CC2)CCCCNC(=O)OCCC[C@@H]1C(=O)NO`, inhibition was half-maximal at 220 nM (IC50). With `CC(C)C[C@H]1C(=O)N[C@H](C(=O)NCC(=O)Nc2ccccc2)Cc2ccc(cc2)OCCC[C@@H]1C(=O)NO`, inhibition was half-maximal at 200 nM (IC50). `CC(C)C[C@H]1C(=O)N[C@H](C(=O)NCC(=O)N2CCOCC2)CCCCN(C)C(=O)OCCC[C@@H]1C(=O)NO` had an IC50 of 200 nM. The compound `CC(C)C[C@H]1C(=O)N[C@H](C(=O)NCC(=O)N2CCC(O)CC2)CCCCNC(=O)OCCC[C@@H]1C(=O)NO` showed an IC50 of 280 nM. This IC50 and that of the compound before are within 1.5-fold of each other. In the case of `CC(C)C[C@H]1C(=O)N[C@H](C(=O)NC[C@@H]2CCCO2)CCCCNC(=O)OCCC[C@@H]1C(=O)NO` it was 260 nM; in that of `CC(C)C[C@H]1C(=O)N[C@H](C(=O)Nc2ccc(N3CCOCC3)cc2)CCCCNC(=O)OCCC[C@@H]1C(=O)NO`, 190 nM. With `CC(C)C[C@H]1C(=O)N[C@H](C(=O)Nc2ccccn2)CCCCN(C)C(=O)OCCC[C@@H]1C(=O)NO`, half-maximal inhibition (IC50) required 200 nM. As to `CC(C)C[C@H]1C(=O)N[C@H](C(=O)Nc2cccnc2)CCCCN(C)C(=O)OCCC[C@@H]1C(=O)NO`, half-maximal inhibition (IC50) required 500 nM. In the case of `CCOC(=O)N1CCN(C(=O)CNC(=O)[C@@H]2CCCCN(C)C(=O)OCCC[C@H](C(=O)NO)[C@@H](CC(C)C)C(=O)N2)CC1` it was 600 nM; in that of `CC(C)C[C@H]1C(=O)N[C@H](C(=O)Nc2ccccc2)CCCCNC(=O)OCCC[C@@H]1C(=O)NO`, 280 nM; in that of `CC(C)C[C@H]1C(=O)N[C@H](C(=O)NCC(=O)N2CCCC(C(=O)O)C2)CCCCNC(=O)OCCC[C@@H]1C(=O)NO` (some centres not stated), 580 nM. Under `CC(C)C[C@H]1C(=O)N[C@H](C(=O)NCc2ccccc2)CCCCNC(=O)OCCC[C@@H]1C(=O)NO` stands 740 nM. The compound `CC(C)C[C@H]1C(=O)N[C@H](C(=O)NCC(=O)Nc2ccc(F)cc2F)Cc2ccc(cc2)OCCC[C@@H]1C(=O)NO` returned an IC50 of 700 nM. Under `CNC(=O)CNC(=O)[C@@H]1CCCCNC(=O)OCCC[C@H](C(=O)NO)[C@@H](CC(C)C)C(=O)N1` stands 120 nM; under `CC(C)C[C@H]1C(=O)N[C@H](C(=O)NCC(F)(F)F)CCCCNC(=O)OCCC[C@@H]1C(=O)NO`, 2000 nM. In the case of `CC(C)C[C@H]1C(=O)N[C@H](C(=O)NCC(=O)N2CCN(c3ccccn3)CC2)CCCCNC(=O)OCCC[C@@H]1C(=O)NO` it was 70 nM; in that of `Cc1ccc2[nH]cc(CCNC(=O)[C@@H]3CCCCNC(=O)OCCC[C@H](C(=O)NO)[C@@H](CC(C)C)C(=O)N3)c2c1`, 1170 nM. On to `CNC(=O)[C@H](NC(=O)[C@@H]1CCCCNC(=O)OCCC[C@H](C(=O)NO)[C@@H](CC(C)C)C(=O)N1)C(C)(C)C`, for which the IC50 is 1200 nM. In the case of `CC(C)C[C@H]1C(=O)N[C@H](C(=O)NC(C)C)Cc2ccc(cc2)OCCC[C@@H]1C(=O)NO` it was 700 nM.

Consider `CC(C)C[C@H]1C(=O)N[C@H](C(=O)NCC(=O)NCC(F)(F)F)Cc2ccc(cc2)OCCC[C@@H]1C(=O)NO`, for which the IC50 stood at 240 nM. This IC50 lies about 2.9-fold lower than the previous one.
